Blank lines part the entries; values can stand above or below the compound they belong to.
Key:
[1] = biological target: Serine/threonine-protein kinase N1 (Homo sapiens, UniProt Q16512); assay: Selectivity interaction (Kinase panel (Z-LYTE Assay)) EUB0001632a PKN1; conditions: at 10 µM
[2] = biological target: Mitogen-activated protein kinase 11 (Homo sapiens) (UniProt Q15759); assay: Selectivity interaction (Kinase panel (Z-LYTE Assay)) EUB0001632a MAPK11; conditions: at 10 µM
[3] = biological target: Serine/threonine-protein kinase 35 (Homo sapiens) (UniProt Q8TDR2); assay: Selectivity interaction (KinomeScan (DiscoverX)) EUB0000607a STK35; conditions: at 10 µM
Serine/threonine-protein kinase 35 (Homo sapiens), sequence (Q8TDR2 whole entry): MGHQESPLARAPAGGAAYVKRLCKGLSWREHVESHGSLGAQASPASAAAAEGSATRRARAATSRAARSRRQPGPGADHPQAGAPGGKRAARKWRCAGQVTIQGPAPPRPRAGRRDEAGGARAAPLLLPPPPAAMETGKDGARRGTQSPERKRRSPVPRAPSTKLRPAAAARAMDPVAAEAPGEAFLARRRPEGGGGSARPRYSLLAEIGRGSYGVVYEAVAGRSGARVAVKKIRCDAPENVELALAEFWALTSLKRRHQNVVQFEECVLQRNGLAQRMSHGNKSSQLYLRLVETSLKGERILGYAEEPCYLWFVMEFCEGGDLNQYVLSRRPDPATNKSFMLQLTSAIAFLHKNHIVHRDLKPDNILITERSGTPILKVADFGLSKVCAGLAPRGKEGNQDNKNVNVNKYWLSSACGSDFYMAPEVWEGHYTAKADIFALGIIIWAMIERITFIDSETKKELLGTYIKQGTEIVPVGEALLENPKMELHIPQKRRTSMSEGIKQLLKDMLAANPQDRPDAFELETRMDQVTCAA

[4] = system: eIF-2-alpha kinase GCN2 (Homo sapiens), Q9P2K8 [S808G]; assay: Selectivity interaction (KinomeScan (DiscoverX)) EUB0000607a EIF2AK4; conditions: at 10 µM
[5] = biological target: Casein kinase II subunit alpha' (Homo sapiens) (UniProt P19784); conditions: at 10 µM
Casein kinase II subunit alpha' (Homo sapiens), sequence (P19784 whole entry, looked up): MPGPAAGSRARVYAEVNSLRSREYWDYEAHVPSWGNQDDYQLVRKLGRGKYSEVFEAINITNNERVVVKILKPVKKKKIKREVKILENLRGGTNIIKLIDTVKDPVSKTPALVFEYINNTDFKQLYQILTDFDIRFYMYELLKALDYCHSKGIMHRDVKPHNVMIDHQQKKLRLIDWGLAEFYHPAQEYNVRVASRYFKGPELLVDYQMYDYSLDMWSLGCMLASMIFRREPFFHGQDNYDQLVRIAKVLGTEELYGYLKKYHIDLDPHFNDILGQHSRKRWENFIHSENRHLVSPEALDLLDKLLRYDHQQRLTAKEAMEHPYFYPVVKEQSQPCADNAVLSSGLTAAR

[6] = biological target: T1, Dual specificity mitogen-activated protein kinase kinase 4 (Homo sapiens) (UniProt P45985); assay: Selectivity interaction (ActivX KiNativ screen (kinase selectivity in THP-1 cell lysates)) EUB0000639a MAP2K4; assay type: subcellular; conditions: lysate, at 1 µM
T1 sequence (whole entry): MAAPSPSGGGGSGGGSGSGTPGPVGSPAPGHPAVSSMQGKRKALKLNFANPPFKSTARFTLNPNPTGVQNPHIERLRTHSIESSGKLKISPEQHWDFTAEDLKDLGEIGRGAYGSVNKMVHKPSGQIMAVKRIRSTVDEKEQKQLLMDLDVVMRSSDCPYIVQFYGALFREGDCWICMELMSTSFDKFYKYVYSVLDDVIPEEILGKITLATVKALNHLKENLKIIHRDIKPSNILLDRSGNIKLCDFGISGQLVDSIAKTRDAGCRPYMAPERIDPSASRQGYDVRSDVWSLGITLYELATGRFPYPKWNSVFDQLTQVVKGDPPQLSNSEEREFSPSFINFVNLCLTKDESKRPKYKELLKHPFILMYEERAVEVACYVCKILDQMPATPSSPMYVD

[7] = biological target: T2, Ephrin type-A receptor 1 (Homo sapiens) (UniProt P21709); assay: Selectivity interaction (KinomeScan (DiscoverX)) EUB0000595a EPHA1; conditions: at 10 µM
T2 sequence (whole entry): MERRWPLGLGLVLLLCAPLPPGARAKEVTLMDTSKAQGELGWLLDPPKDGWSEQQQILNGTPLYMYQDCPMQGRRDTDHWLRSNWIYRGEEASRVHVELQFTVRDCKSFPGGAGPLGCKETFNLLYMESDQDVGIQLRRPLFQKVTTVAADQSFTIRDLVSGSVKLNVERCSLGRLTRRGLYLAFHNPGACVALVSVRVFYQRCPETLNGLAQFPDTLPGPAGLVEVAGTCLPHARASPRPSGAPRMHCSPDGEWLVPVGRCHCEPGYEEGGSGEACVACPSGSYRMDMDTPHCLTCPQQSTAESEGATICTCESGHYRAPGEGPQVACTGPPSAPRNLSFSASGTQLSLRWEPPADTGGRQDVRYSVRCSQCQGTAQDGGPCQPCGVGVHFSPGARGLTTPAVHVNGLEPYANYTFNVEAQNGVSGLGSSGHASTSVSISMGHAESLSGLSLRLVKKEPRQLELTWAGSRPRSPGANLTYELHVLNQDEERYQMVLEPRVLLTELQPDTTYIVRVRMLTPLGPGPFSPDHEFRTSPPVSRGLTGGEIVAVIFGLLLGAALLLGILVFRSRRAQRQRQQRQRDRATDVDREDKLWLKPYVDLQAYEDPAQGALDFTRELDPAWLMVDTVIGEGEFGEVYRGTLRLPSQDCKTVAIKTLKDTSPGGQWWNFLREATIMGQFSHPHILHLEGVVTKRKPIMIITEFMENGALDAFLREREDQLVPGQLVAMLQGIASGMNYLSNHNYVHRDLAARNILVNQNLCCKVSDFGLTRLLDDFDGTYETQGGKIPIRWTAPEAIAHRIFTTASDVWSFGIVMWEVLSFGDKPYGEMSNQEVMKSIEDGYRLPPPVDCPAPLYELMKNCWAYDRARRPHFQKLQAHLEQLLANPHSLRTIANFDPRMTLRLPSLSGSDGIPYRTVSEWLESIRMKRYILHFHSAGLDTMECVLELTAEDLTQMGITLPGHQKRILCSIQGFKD

[8] = biological target: 5-hydroxytryptamine receptor 1B (Homo sapiens) (UniProt P28222); assay: Selectivity interaction (Panel of kinases, GPCRs, ion channels and transporters (enzymatic assay)) EUB0000223bCl HTR1B
5-hydroxytryptamine receptor 1B (Homo sapiens), sequence (P28222 whole entry): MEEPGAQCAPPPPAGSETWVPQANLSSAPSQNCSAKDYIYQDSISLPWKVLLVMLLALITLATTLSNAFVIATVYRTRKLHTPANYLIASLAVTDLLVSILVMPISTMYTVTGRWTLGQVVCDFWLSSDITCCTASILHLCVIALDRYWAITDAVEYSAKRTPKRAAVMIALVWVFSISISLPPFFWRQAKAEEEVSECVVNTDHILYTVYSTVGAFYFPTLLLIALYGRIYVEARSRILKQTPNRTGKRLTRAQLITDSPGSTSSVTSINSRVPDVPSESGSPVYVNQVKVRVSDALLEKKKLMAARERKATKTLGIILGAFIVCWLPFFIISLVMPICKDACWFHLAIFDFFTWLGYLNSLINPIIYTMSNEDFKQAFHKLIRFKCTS

[9] = biological target: Vascular endothelial growth factor receptor 2 (Homo sapiens, UniProt P35968); assay: Selectivity interaction (KinomeScan (DiscoverX)) EUB0000655a KDR; conditions: at 10 µM
[10] = biological target: Serine/threonine-protein kinase MRCK gamma (Homo sapiens) (UniProt Q6DT37); conditions: at 10 µM
Serine/threonine-protein kinase MRCK gamma (Homo sapiens), sequence (Q6DT37 whole entry): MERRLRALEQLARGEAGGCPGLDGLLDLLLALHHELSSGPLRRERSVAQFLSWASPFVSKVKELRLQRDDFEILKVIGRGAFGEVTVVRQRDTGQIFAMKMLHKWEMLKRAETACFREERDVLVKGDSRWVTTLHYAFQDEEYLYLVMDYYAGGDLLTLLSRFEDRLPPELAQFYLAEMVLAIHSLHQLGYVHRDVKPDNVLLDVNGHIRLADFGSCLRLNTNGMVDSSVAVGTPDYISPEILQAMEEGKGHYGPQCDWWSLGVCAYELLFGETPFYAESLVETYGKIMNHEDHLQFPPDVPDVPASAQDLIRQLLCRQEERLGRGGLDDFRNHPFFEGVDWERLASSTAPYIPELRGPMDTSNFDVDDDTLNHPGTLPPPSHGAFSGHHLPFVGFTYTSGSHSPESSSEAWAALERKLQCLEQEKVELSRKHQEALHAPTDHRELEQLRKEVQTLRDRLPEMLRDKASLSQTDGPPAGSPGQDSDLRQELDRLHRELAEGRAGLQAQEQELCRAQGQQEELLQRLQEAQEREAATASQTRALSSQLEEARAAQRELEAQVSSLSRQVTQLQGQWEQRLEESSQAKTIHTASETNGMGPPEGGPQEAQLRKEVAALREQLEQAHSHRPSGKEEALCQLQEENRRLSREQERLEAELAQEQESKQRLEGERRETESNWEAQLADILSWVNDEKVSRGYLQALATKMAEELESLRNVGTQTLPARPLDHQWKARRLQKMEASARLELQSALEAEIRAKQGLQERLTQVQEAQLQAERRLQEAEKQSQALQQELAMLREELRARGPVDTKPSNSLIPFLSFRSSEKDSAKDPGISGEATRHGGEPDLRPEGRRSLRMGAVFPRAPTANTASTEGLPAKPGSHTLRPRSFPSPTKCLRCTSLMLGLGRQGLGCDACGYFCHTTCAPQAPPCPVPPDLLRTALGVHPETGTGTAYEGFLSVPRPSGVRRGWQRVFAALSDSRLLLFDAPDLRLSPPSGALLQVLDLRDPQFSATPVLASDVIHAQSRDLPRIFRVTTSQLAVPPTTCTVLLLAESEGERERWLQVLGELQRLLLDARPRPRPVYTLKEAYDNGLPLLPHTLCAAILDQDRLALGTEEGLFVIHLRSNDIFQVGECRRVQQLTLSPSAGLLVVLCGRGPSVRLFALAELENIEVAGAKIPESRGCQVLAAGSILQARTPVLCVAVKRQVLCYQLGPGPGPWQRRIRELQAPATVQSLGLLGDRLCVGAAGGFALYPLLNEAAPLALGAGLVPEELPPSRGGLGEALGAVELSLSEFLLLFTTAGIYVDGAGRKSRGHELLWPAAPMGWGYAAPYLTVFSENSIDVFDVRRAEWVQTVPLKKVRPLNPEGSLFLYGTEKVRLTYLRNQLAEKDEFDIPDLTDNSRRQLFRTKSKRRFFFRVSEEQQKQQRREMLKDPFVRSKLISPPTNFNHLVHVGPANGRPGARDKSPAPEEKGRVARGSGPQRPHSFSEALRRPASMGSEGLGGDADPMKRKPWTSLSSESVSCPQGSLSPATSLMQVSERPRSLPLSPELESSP

[11] = biological target: Glycogen synthase kinase-3 alpha (Homo sapiens, UniProt P49840); conditions: at 10 µM
Glycogen synthase kinase-3 alpha, sequence (P49840 2-483 limits assumed): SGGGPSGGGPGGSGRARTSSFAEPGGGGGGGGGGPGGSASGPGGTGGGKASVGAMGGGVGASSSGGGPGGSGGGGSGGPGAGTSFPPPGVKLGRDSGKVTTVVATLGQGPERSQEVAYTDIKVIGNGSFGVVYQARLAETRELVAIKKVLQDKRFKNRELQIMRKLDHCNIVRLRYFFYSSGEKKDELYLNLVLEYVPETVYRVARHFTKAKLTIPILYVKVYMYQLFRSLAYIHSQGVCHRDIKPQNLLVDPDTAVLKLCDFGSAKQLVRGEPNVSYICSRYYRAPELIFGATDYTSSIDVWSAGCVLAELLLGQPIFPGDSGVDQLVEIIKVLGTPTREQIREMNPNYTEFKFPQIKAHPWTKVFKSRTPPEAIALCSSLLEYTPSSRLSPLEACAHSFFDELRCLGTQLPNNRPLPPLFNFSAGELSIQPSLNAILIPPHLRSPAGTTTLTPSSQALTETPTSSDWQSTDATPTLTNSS

[12] = biological target: T3, Tyrosine-protein kinase TXK (Homo sapiens) (UniProt P42681); assay: Selectivity interaction (KinomeScan (DiscoverX)) EUB0001619a TXK; conditions: at 1 µM
T3 sequence (whole entry): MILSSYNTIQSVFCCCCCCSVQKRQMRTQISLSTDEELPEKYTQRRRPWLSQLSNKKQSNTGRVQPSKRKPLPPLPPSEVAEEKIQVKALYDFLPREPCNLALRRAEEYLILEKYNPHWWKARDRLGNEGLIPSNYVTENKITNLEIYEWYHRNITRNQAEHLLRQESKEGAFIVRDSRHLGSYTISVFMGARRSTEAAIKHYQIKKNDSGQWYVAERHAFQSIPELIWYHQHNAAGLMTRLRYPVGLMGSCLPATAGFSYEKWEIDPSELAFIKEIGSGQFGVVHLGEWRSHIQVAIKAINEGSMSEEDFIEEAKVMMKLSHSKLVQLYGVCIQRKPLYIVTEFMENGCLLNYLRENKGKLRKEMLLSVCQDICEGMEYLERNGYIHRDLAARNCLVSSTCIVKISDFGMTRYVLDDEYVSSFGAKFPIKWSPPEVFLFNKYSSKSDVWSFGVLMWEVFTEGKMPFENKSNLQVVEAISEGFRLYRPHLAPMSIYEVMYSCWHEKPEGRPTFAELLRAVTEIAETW

[13] = biological target: Tyrosine-protein kinase Fgr (Homo sapiens) (UniProt P09769); assay: Selectivity interaction (ActivX KiNativ screen (ex vivo kinase selectivity in human PBMCs)) EUB0001619a FGR; assay type: cell-based; conditions: PBMC, at 1 µM
Tyrosine-protein kinase Fgr (Homo sapiens), sequence (P09769 2-529 limits assumed): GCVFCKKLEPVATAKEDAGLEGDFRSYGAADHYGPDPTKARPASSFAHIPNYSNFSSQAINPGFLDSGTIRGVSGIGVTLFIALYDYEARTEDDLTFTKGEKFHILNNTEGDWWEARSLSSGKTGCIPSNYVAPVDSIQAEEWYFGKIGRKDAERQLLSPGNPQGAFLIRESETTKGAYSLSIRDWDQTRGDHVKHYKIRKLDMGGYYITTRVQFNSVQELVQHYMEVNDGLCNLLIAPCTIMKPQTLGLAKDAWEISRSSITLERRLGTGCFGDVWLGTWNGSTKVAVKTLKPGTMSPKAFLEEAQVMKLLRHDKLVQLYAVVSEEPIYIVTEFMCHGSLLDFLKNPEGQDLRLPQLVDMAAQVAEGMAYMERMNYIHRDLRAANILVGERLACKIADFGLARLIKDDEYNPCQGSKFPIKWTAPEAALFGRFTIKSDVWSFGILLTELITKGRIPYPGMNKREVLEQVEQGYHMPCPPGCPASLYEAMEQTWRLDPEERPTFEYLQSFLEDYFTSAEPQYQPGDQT

Mitogen-activated protein kinase 11 (Homo sapiens), sequence (Q15759 whole entry): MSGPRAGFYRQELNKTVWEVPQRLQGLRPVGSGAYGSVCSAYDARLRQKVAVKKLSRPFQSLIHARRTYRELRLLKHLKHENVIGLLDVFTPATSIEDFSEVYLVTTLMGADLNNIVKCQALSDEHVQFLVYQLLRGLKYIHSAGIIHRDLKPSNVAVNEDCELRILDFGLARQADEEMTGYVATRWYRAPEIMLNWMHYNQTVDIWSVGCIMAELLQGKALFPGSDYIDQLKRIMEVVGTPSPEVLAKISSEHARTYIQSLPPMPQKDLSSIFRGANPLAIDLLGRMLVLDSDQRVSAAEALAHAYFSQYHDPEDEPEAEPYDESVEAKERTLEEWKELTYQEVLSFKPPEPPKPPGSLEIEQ

% of control [1]: -4.72%
% of control [2]: 1.54%
SMILES: Cn1cc(-n2cnc3c(NCc4nc5cc(Cl)c(Cl)cc5[nH]4)nc(N4CCOCC4)nc32)cn1

SMILES: CNC(=O)Nc1ccc(-c2nc(N3CC4CCC(C3)O4)c3cnn(C4CCC5(CC4)OCCO5)c3n2)cc1
% of control [3]: 95%
% of control [4]: 83%

% of control [5]: 100%
SMILES: CCN(CC)CCCCNc1ncc2cc(-c3cc(OC)cc(OC)c3)c(NC(=O)NC(C)(C)C)nc2n1

% of inhibition [6]: 17.3%
SMILES: CC[C@@H]1[C@H](F)C(=O)N[C@@H]1COc1nccc2cc(C(N)=O)c(OC)cc12 [ZIMLOVISERTIB]

SMILES: COCC(=O)NC/C=C/c1ccc2ncnc(Nc3ccc(Oc4ccc(C)nc4)c(C)c3)c2c1 [CP-724714]
% of control [7]: 88%

SMILES: COc1cc(C(=O)N2CC[C@@H](O)[C@@H](N)C2)cc2nc(-c3cc4ccccc4n3CC3CC3)n(C)c12
pXC50 [8]: < 4.5 M

SMILES: CN(C)CCOc1ccc(-c2nc(-c3ccncc3)c(-c3ccc4c(c3)CC/C4=N\O)[nH]2)cc1
% of control [9]: 100%

SMILES: Cc1cc([C@@H](C)Nc2ccccc2C(=O)O)c2nc(N3CCOCC3)cc(=O)n2c1 [AZD-6482]
% of control [10]: 100%
% of control [11]: 100%

SMILES: N#Cc1cccc(-c2c[nH]c3ncnc(N4CCOCC4)c23)c1
% of control [12]: 100%
% of inhibition [13]: -34%

— ChEMBL document CHEMBL5465560, “Selectivity Literature for EUbOPEN Chemogenomic Library” (2024)
